The values below come from PubChem BioAssay AID330 (DTP/NCI, 2004).

The experiment deals with P388 leukemia ip, CD2F1 mice, survival T/C. The experiment in a line: NCI In Vivo Anticancer Drug Screen. Data for tumor model P388 Leukemia (intraperitoneal) in CD2F1 (CDF1) mice. As to conditions: endpoint: median survival time, higher = longer survival. An outline of the steps: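 Mice carrying the transplanted tumor received test compound or vehicle. Survival was recorded in each group, and the value is the treated-group measurement divided by that of the vehicle-treated control group.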

Molecules are shown by their SMILES. Several values for one entry are separate records, joined by “and”; a condition that tells them apart may be missing. Equal entries are not always repeated. Toxic doses and inconclusive results are not listed.

With `CC(C)CCCCCCCCCCCCC(=O)NCC(=O)NC1C(O)C(O)C(Nc2ncnc3nc[nH]c23)OC1C(O)CO` (stereo not given), the T/C was 100 % of control (dose: 0.06 mg/kg/injection, schedule: Q01DX009 (ip), vehicle: Klucel (hydroxypropylcellulose) (HPC)); 100 % of control (dose: 0.13 mg/kg/injection, schedule: Q01DX009 (ip), vehicle: Klucel (hydroxypropylcellulose) (HPC)); 100 % of control (dose: 0.25 mg/kg/injection, schedule: Q01DX009 (ip), vehicle: Klucel (hydroxypropylcellulose) (HPC)); 154 % of control (dose: 0.25 mg/kg/injection, schedule: Q01DX009 (ip), vehicle: distilled water + alcohol); 158 % of control (dose: 0.25 mg/kg/injection, schedule: Q01DX009 (ip), vehicle: saline with Tween-80); 100 % of control (dose: 0.25 mg/kg/injection, schedule: Q03HX008 (ip), vehicle: Klucel (hydroxypropylcellulose) (HPC)). Moreover, the T/C (dose: 0.25 mg/kg/injection, schedule: Q03HX016 (ip), vehicle: Klucel (hydroxypropylcellulose) (HPC)) was 100 % of control; the T/C (dose: 0.25 mg/kg/injection, schedule: Q03HX024 (ip), vehicle: Klucel (hydroxypropylcellulose) (HPC)) was 95 % of control; the T/C (dose: 0.5 mg/kg/injection, schedule: Q01DX009 (ip), vehicle: Klucel (hydroxypropylcellulose) (HPC)) is 100 % of control; the T/C (dose: 0.5 mg/kg/injection, schedule: Q01DX009 (ip), vehicle: distilled water + Tween-80) was 154 % of control; the T/C (dose: 0.5 mg/kg/injection, schedule: Q01DX009 (ip), vehicle: saline with Tween-80) is 151 % of control; the T/C (dose: 0.5 mg/kg/injection, schedule: Q01DX009 (oral), vehicle: Klucel (hydroxypropylcellulose) (HPC)) was 100 % of control. For the same compound, the T/C was 100 % of control (dose: 0.5 mg/kg/injection, schedule: Q03HX008 (ip), vehicle: Klucel (hydroxypropylcellulose) (HPC)); 100 % of control (dose: 0.5 mg/kg/injection, schedule: Q03HX016 (ip), vehicle: Klucel (hydroxypropylcellulose) (HPC)); 90 % of control (dose: 0.5 mg/kg/injection, schedule: Q03HX024 (ip), vehicle: Klucel (hydroxypropylcellulose) (HPC)); 100 % of control (dose: 1.0 mg/kg/injection, schedule: Q01DX009 (ip), vehicle: Klucel (hydroxypropylcellulose) (HPC)); 110 % of control (dose: 1.0 mg/kg/injection, schedule: Q01DX009 (ip), vehicle: distilled water + alcohol); 101 % of control and 109 % of control (dose: 1.0 mg/kg/injection, schedule: Q01DX009 (ip), vehicle: saline with Tween-80). Moreover, the T/C is, setting by setting: (dose: 1.0 mg/kg/injection, schedule: Q01DX009 (oral), vehicle: Klucel (hydroxypropylcellulose) (HPC)) 100 % of control; (dose: 1.0 mg/kg/injection, schedule: Q03HX008 (ip), vehicle: Klucel (hydroxypropylcellulose) (HPC)) 100 % of control; (dose: 1.0 mg/kg/injection, schedule: Q03HX016 (ip), vehicle: Klucel (hydroxypropylcellulose) (HPC)) 100 % of control; (dose: 1.0 mg/kg/injection, schedule: Q03HX024 (ip), vehicle: Klucel (hydroxypropylcellulose) (HPC)) 95 % of control; (dose: 2.0 mg/kg/injection, schedule: Q01DX001 (ip), vehicle: Klucel (hydroxypropylcellulose) (HPC)) 100 % of control; (dose: 2.0 mg/kg/injection, schedule: Q01DX009 (ip), vehicle: Klucel (hydroxypropylcellulose) (HPC)) 151 % of control. In addition, the T/C was 89 % of control (dose: 2.0 mg/kg/injection, schedule: Q01DX009 (ip), vehicle: saline with Tween-80); 100 % of control (dose: 2.0 mg/kg/injection, schedule: Q01DX009 (oral), vehicle: Klucel (hydroxypropylcellulose) (HPC)); 100 % of control (dose: 2.0 mg/kg/injection, schedule: Q03HX008 (ip), vehicle: Klucel (hydroxypropylcellulose) (HPC)); 100 % of control (dose: 2.0 mg/kg/injection, schedule: Q03HX016 (ip), vehicle: Klucel (hydroxypropylcellulose) (HPC)); 95 % of control (dose: 2.0 mg/kg/injection, schedule: Q03HX024 (ip), vehicle: Klucel (hydroxypropylcellulose) (HPC)); 100 % of control (dose: 2.0 mg/kg/injection, schedule: Q04DX003 (ip), vehicle: Klucel (hydroxypropylcellulose) (HPC)). In addition, the T/C by setting is: (dose: 2.0 mg/kg/injection, schedule: Q08DX002 (ip), vehicle: Klucel (hydroxypropylcellulose) (HPC)) 100 % of control; (dose: 4.0 mg/kg/injection, schedule: Q01DX001 (ip), vehicle: Klucel (hydroxypropylcellulose) (HPC)) 100 % of control; (dose: 4.0 mg/kg/injection, schedule: Q01DX009 (oral), vehicle: Klucel (hydroxypropylcellulose) (HPC)) 100 % of control; (dose: 4.0 mg/kg/injection, schedule: Q04DX003 (ip), vehicle: Klucel (hydroxypropylcellulose) (HPC)) 100 % of control; (dose: 4.0 mg/kg/injection, schedule: Q08DX002 (ip), vehicle: Klucel (hydroxypropylcellulose) (HPC)) 100 % of control; (dose: 8.0 mg/kg/injection, schedule: Q01DX001 (ip), vehicle: Klucel (hydroxypropylcellulose) (HPC)) 100 % of control. The T/C (dose: 8.0 mg/kg/injection, schedule: Q04DX003 (ip), vehicle: Klucel (hydroxypropylcellulose) (HPC)) was 100 % of control; the T/C (dose: 8.0 mg/kg/injection, schedule: Q08DX002 (ip), vehicle: Klucel (hydroxypropylcellulose) (HPC)) is 100 % of control; the T/C (dose: 16.0 mg/kg/injection, schedule: Q01DX001 (ip), vehicle: Klucel (hydroxypropylcellulose) (HPC)) is 100 % of control; the T/C (dose: 16.0 mg/kg/injection, schedule: Q01DX001 (oral), vehicle: Klucel (hydroxypropylcellulose) (HPC)) was 100 % of control; the T/C (dose: 16.0 mg/kg/injection, schedule: Q04DX003 (ip), vehicle: Klucel (hydroxypropylcellulose) (HPC)) was 100 % of control; the T/C (dose: 16.0 mg/kg/injection, schedule: Q08DX002 (ip), vehicle: Klucel (hydroxypropylcellulose) (HPC)) was 104 % of control. Moreover, the T/C by setting is: (dose: 32.0 mg/kg/injection, schedule: Q01DX001 (oral), vehicle: Klucel (hydroxypropylcellulose) (HPC)) 100 % of control; (dose: 64.0 mg/kg/injection, schedule: Q01DX001 (oral), vehicle: Klucel (hydroxypropylcellulose) (HPC)) 100 % of control; (dose: 128.0 mg/kg/injection, schedule: Q01DX001 (oral), vehicle: Klucel (hydroxypropylcellulose) (HPC)) 100 % of control.

Consider `Cc1ccc(-c2nc3n(c2C=O)CCS3)cc1`, for which the T/C by setting is: (dose: 100.0 mg/kg/injection, schedule: Q01DX001 (ip), vehicle: Klucel (hydroxypropylcellulose) (HPC)) 112 % of control; (dose: 200.0 mg/kg/injection, schedule: Q01DX001 (ip), vehicle: Klucel (hydroxypropylcellulose) (HPC)) 106 % of control; (dose: 400.0 mg/kg/injection, schedule: Q01DX001 (ip), vehicle: Klucel (hydroxypropylcellulose) (HPC)) 98 % of control.

Regarding `CCOC(=O)/C(C#N)=C(\CCC(C(=O)O)N1C(=O)c2ccccc2C1=O)OC` (stereo not given), the T/C was 102 % of control (dose: 100.0 mg/kg/injection, schedule: Q04DX002 (ip), vehicle: Klucel (hydroxypropylcellulose) (HPC)); 102 % of control (dose: 200.0 mg/kg/injection, schedule: Q04DX002 (ip), vehicle: Klucel (hydroxypropylcellulose) (HPC)); 110 % of control (dose: 400.0 mg/kg/injection, schedule: Q04DX002 (ip), vehicle: Klucel (hydroxypropylcellulose) (HPC)).

`O=S1(=O)CCCO1`: the T/C reads like this: (dose: 100.0 mg/kg/injection, schedule: Q04DX003 (ip), vehicle: saline) 100 % of control; (dose: 200.0 mg/kg/injection, schedule: Q04DX003 (ip), vehicle: saline) 118 % of control.

On to `O=C(Nc1ccccc1-c1ccccc1)C(=O)Nc1ccccc1-c1ccccc1`, for which the T/C runs as follows: (dose: 50.0 mg/kg/injection, schedule: Q01DX005 (ip), vehicle: saline with Tween-80) 90 % of control; (dose: 100.0 mg/kg/injection, schedule: Q01DX005 (ip), vehicle: saline with Tween-80) 89 % of control.

For the compound `Cc1ccc(S(=O)(=O)N/N=C/c2ccccc2)cc1`, the T/C is 95 % of control (dose: 25.0 mg/kg/injection, schedule: Q01DX009 (ip), vehicle: Klucel (hydroxypropylcellulose) (HPC)); 94 % of control (dose: 50.0 mg/kg/injection, schedule: Q01DX009 (ip), vehicle: Klucel (hydroxypropylcellulose) (HPC)); 95 % of control (dose: 100.0 mg/kg/injection, schedule: Q01DX009 (ip), vehicle: Klucel (hydroxypropylcellulose) (HPC)); 97 % of control (dose: 200.0 mg/kg/injection, schedule: Q01DX009 (ip), vehicle: Klucel (hydroxypropylcellulose) (HPC)); 109 % of control (dose: 400.0 mg/kg/injection, schedule: Q01DX009 (ip), vehicle: Klucel (hydroxypropylcellulose) (HPC)).

In the case of `Clc1ccc(-c2cc(-c3cc(-c4ccc(Cl)c(Cl)c4)n[nH]3)[nH]n2)cc1Cl`, the T/C was 97 % of control (dose: 60.0 mg/kg/injection, schedule: Q01DX005 (ip), vehicle: Klucel (hydroxypropylcellulose) (HPC)); 86 % of control (dose: 120.0 mg/kg/injection, schedule: Q01DX005 (ip), vehicle: Klucel (hydroxypropylcellulose) (HPC)); 96 % of control (dose: 240.0 mg/kg/injection, schedule: Q01DX005 (ip), vehicle: Klucel (hydroxypropylcellulose) (HPC)).

As to `Nc1nnc(-c2ccc(Nc3nc4ccccc4[nH]3)c([N+](=O)[O-])c2)s1`, the T/C reads like this: (dose: 60.0 mg/kg/injection, schedule: Q01DX005 (ip), vehicle: saline with Tween-80) 98 % of control; (dose: 120.0 mg/kg/injection, schedule: Q01DX005 (ip), vehicle: saline with Tween-80) 101 % of control.
